Reference: US8952024B2, “Herbicidal pyrimidone derivatives” (E I du Pont de Nemours and Company, priority 2009, dated 2015)

Experiments:
Format in all cases: in vivo
[1] = tested on: bermudagrass (Cynodon dactylon); assay: Test B pre-/postemergence plant response
How it was run: (§1)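 Response scores were assigned visually after 13 to 15 days in a greenhouse, comparing treated pots with controls on a 0–100 scale where 100 denotes complete control. Preemergence treatments went onto freshly seeded loam/sand soil; postemergence treatments onto plants 2 to 18 cm tall.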

[2] = tested on: galium (catchweed bedstraw, Galium aparine); assay: Test B pre-/postemergence plant response; conditions: Preemergence; for Galium plant response rating: 125 g ai/ha
How it was run: as §1

[3] = tested on: morningglory (Ipomoea coccinea); assay: Test B pre-/postemergence plant response
How it was run: as §1

[4] = tested on: nightshade (eastern black nightshade, Solanum ptycanthum); assay: Test B pre-/postemergence plant response; conditions: Preemergence; for Nightshade plant response rating: 125 g ai/ha
How it was run: as §1

[5] = tested on: sunflower (common oilseed sunflower, Helianthus annuus); assay: Test B pre-/postemergence plant response; conditions: Preemergence; for Sunflower plant response rating: 125 g ai/ha
How it was run: as §1

[6] = tested on: canarygrass (Phalaris minor); assay: Test B postemergence plant response; conditions: Postemergence; for Canarygrass plant response rating: 250 g ai/ha, scale 0 to 100
How it was run: (§2)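 Plants at the 1- to 4-leaf stage (2 to 18 cm tall), grown in pots of peat moss/vermiculite medium with wetting agent and starter nutrients, received postemergence applications of test chemicals. After 13 to 15 days in a greenhouse, injury was rated visually against untreated controls on a 0 (no effect) to 100 (complete control) scale.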

[7] = tested on: chickweed (Stellaria media); assay: Test B postemergence plant response; conditions: Postemergence; for Chickweed plant response rating: 250 g ai/ha, scale 0 to 100
How it was run: as §2

[8] = tested on: windgrass (Apera spica-venti); assay: Test B postemergence plant response; conditions: Postemergence
How it was run: as §2

[9] = tested on: winter barley (Hordeum vulgare); assay: Test B postemergence plant response; conditions: Postemergence; for Barley plant response rating: 250 g ai/ha, scale 0 to 100
How it was run: as §2

[10] = tested on: barnyardgrass (Echinochloa crus-galli); assay: Test B flooded paddy test; conditions: for Plant response rating, Flood, Barnyardgrass: 250 g ai/ha, flooded paddy test, visual rating on 0 to 100 scale (0 no effect, 100 complete control) after 13 to 15 days; for Plant response rating, Barnyardgrass: Flood (flooded paddy test), 62 g ai/ha, 13 to 15 days
How it was run: (§3)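 Visual scores run from 0 (no effect) to 100 (complete control), assigned by comparison with controls 13 to 15 days after treatment. Test compounds went straight into water standing 3 cm above the soil, around plants at the 2-leaf stage kept in a greenhouse.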

[11] = tested on: ducksalad (Heteranthera limosa); assay: Test B flooded paddy test; conditions: for Plant response rating, Flood, Ducksalad: 250 g ai/ha, flooded paddy test, visual rating on 0 to 100 scale (0 no effect, 100 complete control) after 13 to 15 days; for Plant response rating, Ducksalad: Flood (flooded paddy test), 62 g ai/ha, 13 to 15 days
How it was run: as §3

[12] = tested on: rice (Oryza sativa); assay: Test B flooded paddy test; conditions: for Plant response rating, Flood, Rice: 250 g ai/ha, flooded paddy test, visual rating on 0 to 100 scale (0 no effect, 100 complete control) after 13 to 15 days; for Plant response rating, Rice: Flood (flooded paddy test), 62 g ai/ha, 13 to 15 days
How it was run: as §3

[13] = tested on: umbrella sedge (Cyperus difformis); assay: Test B flooded paddy test; conditions: for Plant response rating, Flood, Sedge, Umbrella: 250 g ai/ha, flooded paddy test, visual rating on 0 to 100 scale (0 no effect, 100 complete control) after 13 to 15 days; for Plant response rating, Sedge, Umbrella: Flood (flooded paddy test), 62 g ai/ha, 13 to 15 days
How it was run: as §3

[14] = tested on: goosegrass (Eleusine indica); assay: Test B pre-/postemergence plant response; conditions: Preemergence, 62 g ai/ha; scale 0 to 100, 0 no effect, 100 complete control
[15] = 250 g ai/ha, Preemergence, 0 to 100 scale
[16] = Postemergence, 31 g ai/ha, scale 0 to 100 (0 no effect, 100 complete control)
[17] = Postemergence, 62 g ai/ha, scale 0 (no effect) to 100 (complete control), 13 to 15 days
[18] = Postemergence, 250 g ai/ha, scale 0 to 100
[19] = Preemergence, 31 g ai/ha, scale 0 to 100 (0 no effect, 100 complete control)
[20] = Preemergence, 62 g ai/ha, scale 0 to 100, 0 no effect, 100 complete control
[21] = Preemergence, 125 g ai/ha, 0 to 100 scale
[22] = 31 g ai/ha, scale 0 to 100 (0 no effect, 100 complete control)
[23] = 62 g ai/ha, scale 0 to 100, 0 no effect, 100 complete control
[24] = Postemergence, 125 g ai/ha, visual rating after 13 to 15 days, scale 0 (no effect) to 100 (complete control)
[25] = 62 g ai/ha, scale 0 (no effect) to 100 (complete control), 13 to 15 days
[26] = 125 g ai/ha, visual rating after 13 to 15 days, scale 0 (no effect) to 100 (complete control)
[27] = scale 0 to 100, 0 is no effect, 100 is complete control
[28] = scale of 0 to 100 where 0 is no effect and 100 is complete control

SMILES: O=C1CCCC(O)=C1C(=O)c1cnc(-c2ccccc2)n(-c2ccc(F)cc2)c1=O [Compound 24]
- Plant response rating, Bermudagrass [1, 15]: 100
- Plant response rating, Bermudagrass [1, 16]: 85
- Plant response rating, Bermudagrass [1, 17]: 95
- Plant response rating, Bermudagrass ([1]; Postemergence, 125 g ai/ha, scale 0 to 100 (0 no effect, 100 complete control), 13 to 15 days): 100
- Bermudagrass plant response rating [1, 18]: 100
- Plant response rating, Bermudagrass [1, 19]: 95
- Plant response rating, Bermudagrass [1, 20]: 100
- Bermudagrass plant response rating [1, 21]: 100
- Plant response rating, Galium ([2]; 250 g ai/ha, 0 to 100 scale): 80
- Plant response rating, Galium [2, 22]: 0
- Plant response rating, Galium [2, 23]: 0
- Galium plant response rating ([2]; 0 to 100 scale): 10
- Plant response rating, Morningglory [3, 15]: 100
- Plant response rating, Morningglory [3, 16]: 50
- Plant response rating, Morningglory [3, 17]: 60
- Plant response rating, Morningglory [3, 24]: 60
- Morningglory plant response rating [3, 18]: 90
- Plant response rating, Morningglory [3, 19]: 100
- Plant response rating, Morningglory [3, 20]: 100
- Morningglory plant response rating [3, 21]: 100
- Plant response rating, Nightshade ([4]; 250 g ai/ha, 0 to 100 scale): 100
- Plant response rating, Nightshade [4, 22]: 90
- Plant response rating, Nightshade [4, 23]: 98
- Nightshade plant response rating ([4]; 0 to 100 scale): 100
- Plant response rating, Sunflower ([5]; 250 g ai/ha, 0 to 100 scale): 98
- Plant response rating, Sunflower [5, 22]: 85
- Plant response rating, Sunflower [5, 23]: 90
- Sunflower plant response rating ([5]; 0 to 100 scale): 95
- Plant response rating, Canarygrass [6, 22]: 40
- Plant response rating, Canarygrass [6, 25]: 40
- Canarygrass plant response rating [6]: 60
- Plant response rating, Chickweed [7, 22]: 80
- Plant response rating, Chickweed [7, 25]: 90
- Plant response rating, Chickweed [7, 26]: 95
- Chickweed plant response rating [7]: 100
- Plant response rating, Windgrass [8, 22]: 20
- Plant response rating, Windgrass [8, 25]: 30
- Plant response rating, Windgrass [8, 26]: 60
- Windgrass plant response rating ([8]; 250 g ai/ha, scale 0 to 100): 80
- Plant response rating, Barley [9, 22]: 0
- Plant response rating, Barley [9, 25]: 5
- Plant response rating, Barley ([9]; 125 g ai/ha, scale 0 to 100 (0 no effect, 100 complete control), 13 to 15 days): 50
- Barley plant response rating [9]: 70
- Plant response rating, Flood, Barnyardgrass [10]: 20
- Plant response rating, Barnyardgrass [10, 27]: 0
- Plant response rating, Flood, Ducksalad [11]: 75
- Plant response rating, Ducksalad [11, 27]: 20
- Plant response rating, Flood, Rice [12]: 0
- Plant response rating, Rice [12, 27]: 0
- Plant response rating, Flood, Sedge, Umbrella [13]: 75
- Plant response rating, Sedge, Umbrella [13, 27]: 0
- Plant response rating, Goosegrass [14]: 98

SMILES: Cc1cccc(-n2c(-c3cccc(Cl)c3)ncc(C(=O)C3=C(O)CCCC3=O)c2=O)c1 [Compound 45]
- Plant response rating, Bermudagrass [1, 15]: 100
- Plant response rating, Bermudagrass [1, 16]: 80
- Plant response rating, Bermudagrass [1, 17]: 85
- Plant response rating, Bermudagrass [1, 24]: 95
- Bermudagrass plant response rating [1, 18]: 100
- Plant response rating, Bermudagrass [1, 19]: 98
- Plant response rating, Bermudagrass [1, 20]: 100
- Bermudagrass plant response rating [1, 21]: 100
- Plant response rating, Galium ([2]; 250 g ai/ha, 0 to 100 scale): 85
- Plant response rating, Galium [2, 22]: 40
- Plant response rating, Galium [2, 23]: 40
- Galium plant response rating ([2]; 0 to 100 scale): 50
- Plant response rating, Morningglory [3, 15]: 0
- Plant response rating, Morningglory [3, 17]: 75
- Plant response rating, Morningglory [3, 24]: 80
- Plant response rating, Morningglory [3, 19]: 0
- Plant response rating, Nightshade ([4]; 250 g ai/ha, 0 to 100 scale): 100
- Plant response rating, Nightshade [4, 22]: 98
- Plant response rating, Nightshade [4, 23]: 100
- Nightshade plant response rating ([4]; 0 to 100 scale): 100
- Plant response rating, Sunflower ([5]; 250 g ai/ha, 0 to 100 scale): 75
- Plant response rating, Sunflower [5, 22]: 0
- Sunflower plant response rating ([5]; 0 to 100 scale): 10
- Plant response rating, Canarygrass [6, 22]: 10
- Plant response rating, Canarygrass [6, 25]: 10
- Plant response rating, Canarygrass [6, 26]: 30
- Canarygrass plant response rating [6]: 30
- Plant response rating, Chickweed [7, 22]: 75
- Plant response rating, Chickweed [7, 25]: 85
- Plant response rating, Chickweed [7, 26]: 98
- Chickweed plant response rating [7]: 100
- Plant response rating, Windgrass [8, 25]: 60
- Plant response rating, Windgrass [8, 26]: 70
- Plant response rating, Barley [9, 22]: 5
- Plant response rating, Barley [9, 25]: 5
- Plant response rating, Barley [9, 26]: 5
- Barley plant response rating [9]: 5
- Plant response rating, Flood, Barnyardgrass [10]: 30
- Plant response rating, Barnyardgrass [10, 28]: 0
- Plant response rating, Flood, Ducksalad [11]: 90
- Plant response rating, Ducksalad [11, 28]: 20
- Plant response rating, Flood, Rice [12]: 20
- Plant response rating, Rice [12, 28]: 15
- Plant response rating, Flood, Sedge, Umbrella [13]: 85
- Plant response rating, Sedge, Umbrella [13, 28]: 70
- Plant response rating, Goosegrass [14]: 100
